Reference: article PMC8228600, “Design, Synthesis, In Vitro and In Vivo Evaluation of Heterobivalent SiFAlin-Modified Peptidic Radioligands Targeting Both Integrin αvβ3 and the MC1 Receptor—Suitable for the Specific Visualization of Melanomas?” (Pharmaceuticals, 2021)
Read-outs that look alike come from different tables or passages of the source.

Tests used:
[1] = Ex vivo biodistribution in tumor-bearing nude mice (non-tumor tissues); settings: male, Balb/cAnNRj-Foxn1nu/nu (nude), mouse, iv, total radioactivity, ex vivo after PET/CT scan, i.v., n = 3
Description: (§1) For the evaluation of the in vivo pharmacokinetics, the two most promising HBPLs—[^18F]2 with the highest affinity to both target receptors and [^18F]4 with the highest hydrophilicity and still reasonable binding affinities—were selected. For PET/CT imaging, 6-week-old male nude mice (Balb/cAnNRj-Foxn1^nu/nu) were subcutaneously injected with 5 × 10^5 B16F10 cells into the right flank and 2.0–2.5 × 10^6 U87MG cells into the left flank to generate the respective receptor-positive tumors. When the tumors reached a sufficient size for imaging, each mouse was administered 4.15 ± 2.28 MBq of [^18F]2 or 3.95 ± 2.06 MBq of [^18F]4 via the lateral tail vein under isoflurane anesthesia. To determine the receptor specificity of both peptide parts of the labeled HBPLs and their relative contribution to overall tumor uptake, blocking experiments were also performed. […] After i.v. injection of the tracers, a dynamic PET scan, followed by a CT scan, was performed. The resulting PET/CT images and time–activity curves (TACs) are depicted in Figure 6, Figure 7 and Figure 8. After completion of the diagnostic scans, the mice were sacrificed, their organs (blood, spleen, liver, kidney, pancreas, lung, heart, brain, bone, muscle, tail, tumors, stomach, colon and small intestine) were collected and measured in a γ-counter for ex vivo biodistribution (see Supplementary Materials Table S1 for detailed results).
(§2) Each male nude mouse (six weeks old) was injected subcutaneously with 5 × 10^5 B16F10 cells into the right flank and 2.0–2.5 × 10^6 U87MG cells into the left flank. The health status and tumor growth of the mice were monitored regularly until the animals could be examined after 15–21 days, depending on the tumor size. For the in vivo experiments, the ^18F-radiolabeled compound was diluted in 0.9% saline to give a final EtOH concentration of <10%. Each mouse was injected with 4.15 ± 2.28 MBq of [^18F]2 or 3.95 ± 2.06 MBq of [^18F]4 via the lateral tail vein under isoflurane anesthesia. […] Each ^18F-labeled compound was studied with or without blocking in at least three mice. Mice were measured under isoflurane anesthesia in a small PET/SPECT/CT animal imaging system. First, a dynamic PET scan was performed over 90 min and the scan was framed in 29 timeframes (10 × 1 min, 10 × 2 min, 6 × 5 min, 3 × 10 min). Images were reconstructed using 12 iterations, a maximum likelihood expectation maximization (MLEM) algorithm including corrections for scattered radiation and decay and a voxel size of 0.5 mm. All PET scans were immediately followed by CT acquisition at a voltage of 45 kV and a current of 400 μA. The images were reconstructed using the filtered back projection (FBP) algorithm with a voxel size of 250 μm. The analysis of the data, including the generation of TACs of the kidneys, liver and tumors and the MIPs, was performed via PMOD (v3.8). For ex vivo biodistribution, the mice were sacrificed directly after the PET/CT scan. Organs (blood, spleen, liver, kidneys, pancreas, lungs, heart, brain, bone, muscle, tail, tumors, stomach, colon and small intestine) were collected, weighed and their radioactivity measured in a γ-counter. The percentage injected dose per gram (% ID/g) of each tissue was calculated from the determined values, organ weights, reference values and injected activity.

[2] = Ex vivo biodistribution: uptake in U87MG tumors and tumor-to-organ ratios; set-up: species or system nude mice (Balb/cAnNRj-Foxn1nu/nu); settings: male, Balb/cAnNRj-Foxn1nu/nu (nude), mouse, iv, total radioactivity; for tissue uptake: U87MG tumor (integrin αvβ3-positive); for tissue to tissue ratio: ex vivo biodistribution, mean (n = 3) ± SD
Description: as §1, §2

## CCCC[C@H](NC(=O)CNC(=O)CNC(=O)CCOCCOCCOCCOCCC(=O)NCCCN(CCCNC(=O)CCOCCOCCOCCOCCC(=O)NCCCC[C@@H]1NC(=O)[C@@H](Cc2ccccc2)NC(=O)[C@H](CC(=O)O)NC(=O)CNC(=O)[C@H](CCCNC(=N)N)NC1=O)CC(=O)N[C@@H](CCCCNC(=O)CCC[N+](C)(C)Cc1ccc([Si](F)(C(C)(C)C)C(C)(C)C)cc1)C(N)=O)C(=O)N[C@H]1CC(=O)NCCCC[C@@H](C(N)=O)NC(=O)[C@H](Cc2c[nH]c3ccccc23)NC(=O)[C@H](CCCNC(=N)N)NC(=O)[C@@H](Cc2ccccc2)NC(=O)[C@H](Cc2c[nH]cn2)NC1=O [[^18F]2]
[1]; liver, without blocking, read-out: ID/g, liver
  tissue uptake: 17.2 ± 6.58 %ID/g
[1]; lung, NDP blocking (20 μg coinjected), read-out: ID/g, lung
  tissue uptake at 1.5 h: 2.98 ± 0.87 %ID/g
[1]; lung, c(RGDyK) blocking (200 μg coinjected), read-out: ID/g, lung
  tissue uptake at 1.5 h: 1.07 ± 0.15 %ID/g
[1]; lung, double blocking (NDP + c(RGDyK)), read-out: ID/g, lung
  tissue uptake at 1.5 h: 1.3 ± 0.36 %ID/g
[1]; lung, without blocking, read-out: ID/g, lung
  tissue uptake at 1.5 h: 2.89 ± 1.04 %ID/g
[1]; muscle, NDP blocking (20 μg coinjected), read-out: ID/g, muscle
  tissue uptake at 1.5 h: 1.37 ± 0.26 %ID/g
[1]; muscle, c(RGDyK) blocking (200 μg coinjected), read-out: ID/g, muscle
  tissue uptake at 1.5 h: 0.38 ± 0.04 %ID/g
[1]; muscle, double blocking (NDP + c(RGDyK)), read-out: ID/g, muscle
  tissue uptake at 1.5 h: 0.34 ± 0.07 %ID/g
[1]; muscle, without blocking, read-out: ID/g, muscle
  tissue uptake at 1.5 h: 4.37 ± 2.58 %ID/g
[1]; pancreas, NDP blocking (20 μg coinjected), read-out: ID/g, pancreas
  tissue uptake at 1.5 h: 0.8 ± 0.15 %ID/g
[1]; pancreas, c(RGDyK) blocking (200 μg coinjected), read-out: ID/g, pancreas
  tissue uptake at 1.5 h: 0.36 ± 0.04 %ID/g
[1]; pancreas, double blocking (NDP + c(RGDyK)), read-out: ID/g, pancreas
  tissue uptake at 1.5 h: 0.55 ± 0.15 %ID/g
[1]; pancreas, without blocking, read-out: ID/g, pancreas
  tissue uptake at 1.5 h: 0.91 ± 0.29 %ID/g
[1]; small intestine, NDP blocking (20 μg coinjected), read-out: ID/g, small intestine
  tissue uptake: 2.75 ± 0.36 %ID/g
[1]; small intestine, c(RGDyK) blocking (200 μg coinjected), read-out: ID/g, small intestine
  tissue uptake: 0.75 ± 0.11 %ID/g
[1]; small intestine, double blocking (NDP + c(RGDyK)), read-out: ID/g, small intestine
  tissue uptake: 0.9 ± 0.23 %ID/g
[1]; small intestine, without blocking, read-out: ID/g, small intestine
  tissue uptake: 2.46 ± 1.77 %ID/g
[1]; spleen, NDP blocking (20 μg coinjected), read-out: ID/g, spleen
  tissue uptake: 2.75 ± 0.55 %ID/g
[1]; spleen, c(RGDyK) blocking (200 μg coinjected), read-out: ID/g, spleen
  tissue uptake: 0.94 ± 0.19 %ID/g
[1]; spleen, double blocking (NDP + c(RGDyK)), read-out: ID/g, spleen
  tissue uptake: 1.07 ± 0.32 %ID/g
[1]; spleen, without blocking, read-out: ID/g, spleen
  tissue uptake: 2.73 ± 0.85 %ID/g
[1]; stomach, NDP blocking (20 μg coinjected), read-out: ID/g, stomach
  tissue uptake: 1.52 ± 0.31 %ID/g
[1]; stomach, c(RGDyK) blocking (200 μg coinjected), read-out: ID/g, stomach
  tissue uptake: 0.54 ± 0.04 %ID/g
[1]; stomach, double blocking (NDP + c(RGDyK)), read-out: ID/g, stomach
  tissue uptake: 0.54 ± 0.12 %ID/g
[1]; stomach, without blocking, read-out: ID/g, stomach
  tissue uptake: 1.56 ± 0.29 %ID/g
[1]; tail, NDP blocking (20 μg coinjected), read-out: ID/g, tail
  tissue uptake at 1.5 h: 37.6 ± 8.67 %ID/g
[1]; tail, c(RGDyK) blocking (200 μg coinjected), read-out: ID/g, tail
  tissue uptake at 1.5 h: 69 ± 3.84 %ID/g
[1]; tail, double blocking (NDP + c(RGDyK)), read-out: ID/g, tail
  tissue uptake: 53.3 ± 12.8 %ID/g
[1]; tail, without blocking, read-out: ID/g, tail
  tissue uptake at 1.5 h: 38 ± 14.4 %ID/g
[2]; NDP blocking (20 μg coinjected), ex vivo after PET/CT scan, i.v., n = 3
  tissue uptake: 3.19 ± 0.33 %ID/g
[2]; c(RGDyK) blocking (200 μg coinjected), ex vivo after PET/CT scan, i.v., n = 3
  tissue uptake: 1.48 ± 0.12 %ID/g
[2]; double blocking (NDP + c(RGDyK)), ex vivo after PET/CT scan, i.v., n = 3
  tissue uptake: 1 ± 0.11 %ID/g
[2]; without blocking, ex vivo after PET/CT scan, i.v., n = 3
  tissue uptake: 2.33 ± 0.46 %ID/g
[2]; U87MG tumor / blood, without blocking, read-out: tumor/blood ratio, U87MG
  tissue to tissue ratio: 2.4 ± 0.67
[2]; U87MG tumor / kidneys, without blocking, read-out: tumor/kidneys ratio, U87MG
  tissue to tissue ratio: 0.18 ± 0.02
[2]; U87MG tumor / liver, without blocking, read-out: tumor/liver ratio, U87MG
  tissue to tissue ratio: 0.14 ± 0.03
[2]; U87MG tumor / muscle, without blocking, read-out: tumor/muscle ratio, U87MG
  tissue to tissue ratio: 0.79 ± 0.66
[2]; U87MG tumor, without blocking, ex vivo after PET/CT scan, i.v., n = 3
  tissue uptake at 1.5 h: 2.33 ± 0.46 %ID/g
